# Patent US20220125959A1, “PROSTATE-SPECIFIC MEMBRANE ANTIGEN (PSMA) INHIBITORS AS DIAGNOSTIC AND RADIONUCLIDE THERAPEUTIC AGENTS” (FIVE ELEVEN PHARMA INC., priority 2019, published 2022)
# Several values for one entry are separate records, joined by “and”; a condition that tells them apart may be missing. Equal values may be shown once.
# Experiments:
# [1] = tested on: PSMA-negative cell line, PC3; test: In vitro cell uptake, PC3 cells; type: cell-based; conditions: PC3 (do not express PSMA), 60 min
# Description: (§1) To determine the cell uptakes of the [^177Lu] labelled ligands, 5×10^5 cells/well were grown in 12-well plates in 1 mL of medium for 48 h. The cells were washed twice with PBS, and 900 μL fresh media were added. Radiolabelled ligand was added and the PSMA-inhibitor (2-PMPA) was applied in a final concentration of 10 μM to determine unspecific binding. All samples were prepared in triplicate. Following the incubation at 37° C., cells were washed twice to remove unbound activity and afterwards lysed in 1 mL of 0.5 M NaOH. Activity was measured in a gamma counter. Aliquots of the solution added to the cells were also measured for the calculation of the cellular uptake as % ID.
# [2] = tested on: PC3-PIP (PSMA positive) and PC-3 tumors (PSMA negative); test: Biodistribution of 177Lu labeled compounds 4 and 7 in tumor bearing nude mice; type: in vivo, CD-1 male nude mice
# Description: (§2) ^177Lu labeling: To 10 μg ligand (1 mg/mL DMSO) were added 15 μL of 2.0 N NaOAc, 400 μL 0.05 N HCl, and 20 μL ^177Lu-solution (780 μCi (Capintec setting 450 (reading×10)). The reaction was heated with a heating block at 95° C. for 1 hour in a 3 mL closed vial. After cooling, the sample was analyzed by HPLC (HPLC: Eclipse XDB-C18 150×4.6 mm, gradient, 1 mL/min; A: 0.1% TFA in water; B: 0.1% TFA in ACN: 0-4 min A/B 85/15%; 4-11 min: from 85/15 to 30/70%; 11-14 min: from 30/70% to 85/15%). Radiochemical purity of [^177Lu]4 (FIG. 2) and [^177Lu]7 was >98% and injected doses were stable at 48 hr after formulation.
# (§3) For iv injection 150 μL of labeled solution was diluted with saline to 3.75mL. Mice were injected with 150 μL of formulated dose. Injected radioactivity was 100 μCi and PSMA ligand amount was constant at 0.72 nmole/mouse.
# Biodistribution of [^68Ga]4, [^177Lu]4 and [^177Lu]7 was determined in nude mice bearing PIP PC3 (PSMA positive) and PC3 (PSMA negative) tumors on the left and right shoulder, respectively, over a period of 192 h (Table 3a, 3b and 3c). […] The uptake in PC3 tumors (PSMA negative) of both ligands, [^177Lu]4 and [^177Lu]7, was clearly much lower than those of PC-3 PIP tumors (PSMA positive).
# [3] = Stability of injected doses after formulation; type: physicochemical; conditions: at 48 hr after formulation
# Description: ^68Ga labeling: To 15 nmole ligand 4 (1 mg/mL DMSO) were added 20 μL of 2.0 N NaOAc, 500 μL ^68Ga-solution (2.25 mCi). The reaction was heated in a heating block at 90° C. for 10 minutes in a 3 mL closed vial. After cooling, the sample was analyzed by HPLC (HPLC: Eclise XDB C18 150×4.6 mm, gradient, 2 mL/min; A: 0.1% TFA in water; B: 0.1% TFA in ACN: 0-2 min 100% A; 2-4 min: from 0% to 100% B; 4-9 min: 100% B; 9-10 min: from 100% to 0% B). Radiochemical purity of [^68Ga]4 was >99% RCP (FIG. 1) and injected doses were stable at 2 hr after formulation.
# as §2, §3
# [4] = tested on: PSMA-positive cell line, PIP PC3; test: In vitro cell uptake, PIP PC3 cells; type: cell-based
# Description: as §1, with “Radiolabelled ligand was added and the PSMA-inhibitor (2-PMPA) was applied in a final concentration of 10 μM to determine unspecific binding.” left out
smiles,measurement,setting,value
O=C(O)CCC(C(=O)O)N1CCN(CC(=O)O)CCN(C(CCC(=O)NCC(=O)N[C@@H](Cc2ccc(OCC(=O)N[C@@H](Cc3ccccc3)C(=O)NCCCC[C@H](NC(=O)N[C@@H](CCC(=O)O)C(=O)O)C(=O)O)cc2)C(=O)O)C(=O)O)CCN(CC(=O)O)CC1.[177Lu] (stereo partly shown) [[^177Lu]4],In vitro cell uptake,[1],0.4 % ID per 5 × 10^5 cells
same,Biodistribution: Blood,[2]; 1 hr,0.27 ± 0.07 % dose/g
same,Biodistribution: Bone,[2]; 1 hr,0.15 ± 0.05 % dose/g
same,Biodistribution: Brain,[2]; 1 hr,0.02 ± 0.01 % dose/g
same,Biodistribution: Heart,[2]; 1 hr,0.17 ± 0.03 % dose/g
same,Biodistribution: Intestine,[2]; 1 hr,0.19 ± 0.08 % dose/g
same,Biodistribution: Kidney,[2]; 1 hr,45.59 ± 20.51 % dose/g
same,Biodistribution: Liver,[2]; 1 hr,0.18 ± 0.05 % dose/g
same,Biodistribution: Lung,[2]; 1 hr,0.63 ± 0.13 % dose/g
same,Biodistribution: Muscle,[2]; 1 hr,0.18 ± 0.06 % dose/g
same,Biodistribution: PC3 tumor,[2]; 1 hr,1.13 ± 0.61 % dose/g
same,Biodistribution: PIP PC3 tumor,[2]; 1 hr,15.27 ± 2.93 % dose/g
same,Biodistribution: Pancreas,[2]; 1 hr,0.43 ± 0.20 % dose/g
same,Biodistribution: Skin,[2]; 1 hr,0.35 ± 0.07 % dose/g
same,Biodistribution: Spleen,[2]; 1 hr,1.42 ± 1.44 % dose/g
same,Biodistribution: Stomach,[2]; 1 hr,0.20 ± 0.10 % dose/g
same,Biodistribution: Blood,[2]; 4 hrs,0.02 % dose/g and 0.02 ± 0.01 % dose/g
same,Biodistribution: Bone,[2]; 4 hrs,0.05 ± 0.01 % dose/g
same,Biodistribution: Brain,[2]; 4 hrs,0.01 ± 0.00 % dose/g
same,Biodistribution: Heart,[2]; 4 hrs,0.11 ± 0.07 % dose/g
same,Biodistribution: Intestine,[2]; 4 hrs,0.21 ± 0.11 % dose/g
same,Biodistribution: Kidney,[2]; 4 hrs,21.17 ± 5.08 % dose/g
same,Biodistribution: Liver,[2]; 4 hrs,0.09 ± 0.03 % dose/g
same,Biodistribution: Lung,[2]; 4 hrs,0.20 ± 0.05 % dose/g
same,Biodistribution: Muscle,[2]; 4 hrs,0.05 ± 0.01 % dose/g
same,Biodistribution: PC3 tumor,[2]; 4 hrs,0.28 ± 0.08 % dose/g
same,Biodistribution: PIP PC3 tumor,[2]; 4 hrs,22.38±3.50 % dose/g
same,Biodistribution: Pancreas,[2]; 4 hrs,0.18 ± 0.10 % dose/g
same,Biodistribution: Skin,[2]; 4 hrs,0.12 ± 0.05 % dose/g
same,Biodistribution: Spleen,[2]; 4 hrs,0.53 ± 0.26 % dose/g
same,Biodistribution: Stomach,[2]; 4 hrs,0.12 ± 0.02 % dose/g
same,Biodistribution: Blood,[2]; 24 hrs (1 day),0.002 ± 0.000 % dose/g
same,Biodistribution: Bone,[2]; 24 hrs (1 day),0.022 ± 0.010 % dose/g
same,Biodistribution: Brain,[2]; 24 hrs (1 day),0.006 ± 0.001 % dose/g
same,Biodistribution: Heart,[2]; 24 hrs (1 day),0.011 ± 0.002 % dose/g
same,Biodistribution: Intestine,[2]; 24 hrs (1 day),0.132 ± 0.114 % dose/g
same,Biodistribution: Kidney,[2]; 24 hrs (1 day),2.291 ± 0.761 % dose/g
same,Biodistribution: Liver,[2]; 24 hrs (1 day),0.036 ± 0.003 % dose/g
same,Biodistribution: Lung,[2]; 24 hrs (1 day),0.024 ± 0.005 % dose/g
same,Biodistribution: Muscle,[2]; 24 hrs (1 day),0.012 ± 0.003 % dose/g
same,Biodistribution: PC3 tumor,[2]; 24 hrs (1 day),0.071 ± 0.010 % dose/g
same,Biodistribution: PIP PC3 tumor,[2]; 24 hrs (1 day),11.29 ± 2.62 % dose/g
same,Biodistribution: Pancreas,[2]; 24 hrs (1 day),0.015 ± 0.004 % dose/g
same,Biodistribution: Skin,[2]; 24 hrs (1 day),0.059 ± 0.029 % dose/g
same,Biodistribution: Spleen,[2]; 24 hrs (1 day),0.047 ± 0.005 % dose/g
same,Biodistribution: Stomach,[2]; 24 hrs (1 day),0.076 ± 0.026 % dose/g
same,Biodistribution: Blood,[2]; 48 hrs (2 days),0.003 ± 0.002 % dose/g
same,Biodistribution: Bone,[2]; 48 hrs (2 days),0.030 ± 0.010 % dose/g
same,Biodistribution: Brain,[2]; 48 hrs (2 days),0.006 ± 0.002 % dose/g
same,Biodistribution: Heart,[2]; 48 hrs (2 days),0.010 ± 0.000 % dose/g
same,Biodistribution: Intestine,[2]; 48 hrs (2 days),0.059 ± 0.036 % dose/g
same,Biodistribution: Kidney,[2]; 48 hrs (2 days),2.359 ± 1.504 % dose/g
same,Biodistribution: Liver,[2]; 48 hrs (2 days),0.069 ± 0.067 % dose/g
same,Biodistribution: Lung,[2]; 48 hrs (2 days),0.032 ± 0.028 % dose/g
same,Biodistribution: Muscle,[2]; 48 hrs (2 days),0.006 ± 0.003 % dose/g
same,Biodistribution: PC3 tumor,[2]; 48 hrs (2 days),0.080 ± 0.034 % dose/g
same,Biodistribution: PIP PC3 tumor,[2]; 48 hrs (2 days),13.98 ± 6.41 % dose/g
same,Biodistribution: Pancreas,[2]; 48 hrs (2 days),0.011 ± 0.001 % dose/g
same,Biodistribution: Skin,[2]; 48 hrs (2 days),0.034 ± 0.015 % dose/g
same,Biodistribution: Spleen,[2]; 48 hrs (2 days),0.133 ± 0.173 % dose/g
same,Biodistribution: Stomach,[2]; 48 hrs (2 days),0.032 ± 0.014 % dose/g
same,Biodistribution: Blood,[2]; 96 hrs (4 days),0.001 ± 0.000 % dose/g
same,Biodistribution: Bone,[2]; 96 hrs (4 days),0.043 ± 0.038 % dose/g
same,Biodistribution: Brain,[2]; 96 hrs (4 days),0.006 ± 0.001 % dose/g
same,Biodistribution: Heart,[2]; 96 hrs (4 days),0.011 ± 0.006 % dose/g
same,Biodistribution: Intestine,[2]; 96 hrs (4 days),0.040 ± 0.028 % dose/g
same,Biodistribution: Kidney,[2]; 96 hrs (4 days),0.623 ± 0.072 % dose/g
same,Biodistribution: Liver,[2]; 96 hrs (4 days),0.031 ± 0.003 % dose/g
same,Biodistribution: Lung,[2]; 96 hrs (4 days),0.020 ± 0.009 % dose/g
same,Biodistribution: Muscle,[2]; 96 hrs (4 days),0.006 ± 0.002 % dose/g
same,Biodistribution: PC3 tumor,[2]; 96 hrs (4 days),0.047 ± 0.012 % dose/g
same,Biodistribution: PIP PC3 tumor,[2]; 96 hrs (4 days),6.90 ± 1.87 % dose/g
same,Biodistribution: Pancreas,[2]; 96 hrs (4 days),0.022 ± 0.011 % dose/g
same,Biodistribution: Skin,[2]; 96 hrs (4 days),0.032 ± 0.019 % dose/g
same,Biodistribution: Spleen,[2]; 96 hrs (4 days),0.033 ± 0.015 % dose/g
same,Biodistribution: Stomach,[2]; 96 hrs (4 days),0.030 ± 0.002 % dose/g
same,Biodistribution: Blood,[2]; 192 hrs (8 days),0.001 ± 0.000 % dose/g
same,Biodistribution: Bone,[2]; 192 hrs (8 days),0.042 ± 0.035 % dose/g
same,Biodistribution: Brain,[2]; 192 hrs (8 days),0.003 ± 0.001 % dose/g
same,Biodistribution: Heart,[2]; 192 hrs (8 days),0.005 ± 0.000 % dose/g
same,Biodistribution: Intestine,[2]; 192 hrs (8 days),0.162 ± 0.087 % dose/g
same,Biodistribution: Kidney,[2]; 192 hrs (8 days),0.177 ± 0.009 % dose/g
same,Biodistribution: Liver,[2]; 192 hrs (8 days),0.021 ± 0.005 % dose/g
same,Biodistribution: Lung,[2]; 192 hrs (8 days),0.006 ± 0.003 % dose/g
same,Biodistribution: Muscle,[2]; 192 hrs (8 days),0.003 ± 0.003 % dose/g
same,Biodistribution: PC3 tumor,[2]; 192 hrs (8 days),0.022 ± 0.002 % dose/g
same,Biodistribution: PIP PC3 tumor,[2]; 192 hrs (8 days),4.21 ± 1.03 % dose/g
same,Biodistribution: Pancreas,[2]; 192 hrs (8 days),0.003 ± 0.001 % dose/g
same,Biodistribution: Skin,[2]; 192 hrs (8 days),0.011 ± 0.003 % dose/g
same,Biodistribution: Spleen,[2]; 192 hrs (8 days),0.032 ± 0.010 % dose/g
same,Biodistribution: Stomach,[2]; 192 hrs (8 days),0.209 ± 0.131 % dose/g
same,Uptake in PC3 tumors (PSMA negative) versus PC-3 PIP tumors (PSMA positive),"[2]; mouse, in vivo",much lower
same,Stability of injected doses,[3],stable
same,Uptakes compared with reference ligand [177Lu]PSMA-617,[4]; PIP PC3,much higher uptakes
same,In vitro cell uptake,"[4]; PIP PC3, 5 min",4.0 % ID per 5 × 10^5 cells
same,In vitro cell uptake,"[4]; PIP PC3, 15 min",7.5 % ID per 5 × 10^5 cells
same,In vitro cell uptake,"[4]; PIP PC3, 30 min",11.2 % ID per 5 × 10^5 cells
same,In vitro cell uptake,"[4]; PIP PC3, 60 min",13.4 % ID per 5 × 10^5 cells
same,In vitro cell uptake,"[4]; PIP PC3, 60 min, with PSMA inhibitor (2-PMPA, 2 uM)",0.9 % ID per 5 × 10^5 cells
same,In vitro cell uptake,"[4]; PIP PC3, 120 min",14.9 % ID per 5 × 10^5 cells
